Laboratory results reported in patent publication US20130005759A1, “SMALL MOLECULE MODIFIERS OF MICRORNA MIR-122” (North Carolina State University, priority 2010, published 2013).

What was measured:
miR-122 = assay: psiCHECK-miR122 dual luciferase reporter assay in Huh7 cells; assay type: cell-based, human; conditions: for EC50: Homo sapiens, Huh-7, read-out: EC50 (miR-122 inhibitors, luciferase dose response); for Renilla luciferase expression with psiCHECK-miR122 (in words): Huh7, 10 μM (antagomir transfected), normalized to DMSO; for increase in the relative luciferase signal / relative luciferase units (RLU) normalized to a DMSO control: Huh7, psiCHECK-miR122, 10 μM; for increase in the relative luciferase signal: 48 hours; for relative luciferase units (RLU) normalized to a DMSO control: mean ± SD of three independent assays
Text: A miRNA small molecule modifier screen for miR-122 was developed based on the psiCHECK-2 (Promega) reporter plasmid (FIG. 9). This construct expresses both Renilla luciferase as well as firefly luciferase, allowing for the normalization of the signal to account for differential cellular viability and variability in transfection efficiency. The miR-122 target sequence was inserted downstream of the Renilla luciferase gene, between the PmeI and SgfI restriction sites. In another aspect of the invention, plasmids expressing luciferase or another reporter gene such as for example, fluorescent reporters (GFP and variants thereof, DsRed, etc.) or beta-galactosidase can be used to screen for small molecule modifiers of miR-122. The mi-122 target sequence may be upstream or downstream of the reporter gene. Multiple miR-122 target sites can also be inserted into or be present in the plasmid.
The presence of mature miR-122 will lead to a decrease in the Renilla luciferase signal (FIG. 1a). The ability to detect endogenous miR-122 was validated by transfecting the generated psiCHECK-miR122 construct into Huh7 and HeLa cells. After 48 hour incubation, the cells were assayed using a Dual Luciferase Assay Kit (Promega). In another embodiment, the cells can be incubated for about 24-96 hours. The Dual Luciferase Assay Kit provides a means to measure the amount of the luciferases by generating a luminescent signal. Using this assay the luminescence from the firefly luciferase reaction may be quenched while the luminescent reaction of Renilla luciferase can be activated. Other assays and procedures that can determine the amount of the one or more reporter genes or miR-122 expression, activity or function can be used. An example of another assay is Dual-Glo Assay (Promega).
The psiCHECK-miR122 vector was then employed in a small molecule screen in Huh7 cells to discover modifiers of miR-122 function. Other cells that express miR-122 such as HepG2 and Hep3B can be used in addition to or instead of Huh7 cells. An increase in the relative Renilla luciferase signal indicates a miR-122 inhibitor, while a reduction in the luciferase signal indicates a miR-122 activator. A genus of compounds that may have activity as modifiers of miR122 function are the Diversity Set II (1364 compounds) from the NCI Developmental Therapeutics Program was screened using Huh7 cells containing the psiCHECK-miR122 reporter. Cells were exposed to the small molecules and the relative luciferase signal was measured after 48 hours using a Dual Luciferase Assay Kit (Promega). In another embodiment the cells can be exposed to the small molecules for about 24-96 hours. As explained above, other assays and procedures that can determine the amount of the one or more reporter genes or miR-122 expression, activity or function can be used.
The analogs were screened for activity using the previously described miR-122 assay. All cells were treated with 10 μM of a compound and experiments were performed in triplicate to ensure statistical validity. The data was normalized to a 1% DMSO control and is reported in relative luciferase units (RLU). The standard deviation was calculated from three independent assays. Some analogs of miR-122 inhibitor compound 1 are:
Huh7 and HeLa cells were transfected at approximately 60% confluency with either the psiCHECK-Control plasmid (the original psiCHECK-2 plasmid containing no known miRNA binding site) or the psiCHECK-miR122 plasmid (0.5 μg) using X-tremGENE transfection reagent (3:2 reagent/DNA ratio; Roche) in Opti-Mem media (Invitrogen). All transfections were performed in triplicate for statistical analysis. The cells were incubated at 37° C. for 4 hours followed by the replacement of transfection media with standard DMEM growth media. After 48 hours of incubation the media was removed, cells were lysed and assayed with a Dual Luciferase Assay Kit (Promega) using a Wallac VICTOR^3V luminometer with a measurement time of 1 s and a delay time of 2 s. […]

pri-miR-122 = assay: quantitative RT PCR of pri-miR-122 in Huh7 cells; assay type: cell-based, human; conditions: Huh7, 10 μM, 48 hours, normalized to DMSO
Description: The activity of the small molecule modifiers was analyzed by quantitative RT PCR in order to measure their direct effects on miR-122 expression levels in Huh7 cells. […] All experiments were conducted in triplicate, and the data was normalized to a DMSO control.
Each treatment was conducted in triplicate to ensure statistical validity. Cells were then incubated at 37° C. for 48 hours (DMEM, 5% CO2). The media was removed, and cells were washed with PBS buffer (2×2 mL, pH 7.4) followed by RNA isolation with the mirPremier™ microRNA Isolation Kit (Aldrich). The RNA was quantified using a Nanodrop ND-1000 spectrophotometer and 10 ng of each RNA sample was reverse transcribed using the TaqMan™ microRNA Reverse Transcription Kit (Applied Biosystems) in conjunction with either the miR-122 or miR-21 TaqMan™ RT primer (16° C., 30 min; 42° C., 30 min; 85° C., 5 min). Quantitative Real Time PCR was conducted with a TaqMan™ 2× Universal PCR Master Mix and the appropriate TaqMan™ miRNA assay (Applied Biosystems) on a BioRad MyiQ RT-PCR thermocycler (1.3 μL RT PCR product; 95° C., 10 min; followed by 40 cycles of 95° C., 15 s; 60° C. 60 s). […]

Row | Structure (SMILES) | EC50 (miR-122) [µM] | Renilla luciferase expression with psiCHECK-miR122 (in words) (miR-122) | increase in the relative luciferase signal (miR-122) [%] | relative luciferase units (RLU) normalized to a DMSO control (miR-122) [RLU] | pri-miR-122 down-regulation to (remaining level) (pri-miR-122) [%]
1 | O=C(Nc1ccc2ccccc2c1)c1ccc(Cl)cc1Cl [Compound 1] | 7.73 ± 0.38 | significant increase | 773±38 | 7.73±0.38 | 22
2 | O=S(=O)(c1ccc2c(c1)CCCN2)N1CCC[C@H]2CCCC[C@@H]21 [Compound 2] | 12.5 ± 1.25 | significant increase | 1251±125 | 12.51±1.25 | 3
